Assay results published in US9307767B2, “Herbicidally and insecticidally active thiazolopyridinones” (BAYER INTELLECTUAL PROPERTY GMBH, priority 2012, dated 2016).
Values joined by “and” are separate entries in the source; they are usually repeats but may differ in a detail not shown here. Equal values may be shown once.

What was measured:
Format in all cases: in vivo
wheat [1] = test: Pre-emergence test, damage to crop plants; conditions: application rate 1280 g/ha, after 3 weeks
Description: (§1) Seeds of monocotyledonous and dicotyledonous weed plants and crop plants are placed in wood-fiber pots in sandy loam and covered with soil. The compounds according to the invention, formulated in the form of wettable powders (WP) or as emulsion concentrates (EC), are then applied as aqueous suspension or emulsion at a water application rate of 600 to 800 l/ha (converted) with the addition of 0.2% of wetting agent to the surface of the covering soil. After the treatment, the pots are placed in a greenhouse and kept under good growth conditions for the test plants. The damage to the test plants is assessed visually after a test period of 3 weeks by comparison with untreated controls (herbicidal activity in percent (%): 100% action=the plants have died, 0% action=like control plants). […] The compounds Nos. I-a-38 and I-a-39 each show, at an application rate of 1280 g/ha, an of at least 80% against Echinochloa crus galli and Veronica persica and at the same time no damage in corn and oilseed rape.

Setaria viridis = test: Pre-emergence herbicidal action against weed plants; conditions: application rate 1280 g/ha, visual assessment after 3 weeks
Description: as §1

Lolium multiflorum [2] = test: as above; conditions: application rate 1280 g/ha, visual assessment after 3 weeks
Description: as §1

wheat [3] = test: Post-emergence test, damage to crop plants; conditions: application rate 80 g/ha, after about 3 weeks
Description: (§2) Seeds of monocotyledonous and dicotyledonous weed and crop plants are placed in sandy loam in wood-fiber pots, covered with soil and cultivated in a greenhouse under good growth conditions. 2 to 3 weeks after sowing, the test plants are treated at the one-leaf stage. The compounds according to the invention, formulated in the form of wettable powders (WP) or as emulsion concentrates (EC), are then sprayed as aqueous suspension or emulsion at a water application rate of 600 to 800 l/ha (converted) with the addition of 0.2% of wetting agent onto the green parts of the plants. After the test plants have been left to stand in the greenhouse under optimal growth conditions for about 3 weeks, the action of the formulations is assessed visually in comparison to untreated controls (herbicidal action in percent (%): 100% activity=the plants have died, 0% activity=like control plants). Here, the compounds Nos. I-a-39 and I-a-42, for example, show, at an application rate of 320 g/ha, an activity of at least 80% against Setaria viridis and at the same time no damage in corn and oilseed rape.

rice [4] = test: Post-emergence test, damage to crop plants; conditions: after about 3 weeks
Description: as §2

corn [5] = test: Post-emergence test, damage to crop plants; conditions: after about 3 weeks
Description: as §2

oilseed rape [6] = test: Post-emergence test, damage to crop plants; conditions: application rate 320 g/ha, after about 3 weeks
Description: as §2

rice [7] = test: Pre-emergence test, damage to crop plants; conditions: application rate 1280 g/ha, after 3 weeks
Description: as §1

Cyperus serotinus = test: Pre-emergence herbicidal action against weed plants; conditions: application rate 1280 g/ha, visual assessment after 3 weeks
Description: as §1

Alopecurus myosuroides = test: as above; conditions: application rate 1280 g/ha, visual assessment after 3 weeks
Description: as §1

[8] = tested on: larvae of the mustard beetle (Phaedon cochleariae); test: Phaedon test (PHAECO spray treatment); conditions: application rate 500 g/ha, Chinese cabbage leaf discs sprayed, after 7 days
Description: • Solvent: 78.0 parts by weight of acetone • 1.5 parts by weight of dimethylformamide • Emulsifier: 0.5 part by weight of alkylaryl polyglycol ether
To produce a suitable preparation of active compound, 1 part by weight of active compound is mixed with the stated amounts of solvent and emulsifier, and the concentrate is diluted with emulsifier-containing water to the desired concentration. Discs of Chinese cabbage leaves (Brassica pekinensis) are sprayed with an active compound formulation of the desired concentration and, after drying, populated with larvae of the mustard beetle (Phaedon cochleariae). After 7 days, the activity in % is determined. 100% means that all of the beetle larvae have been killed; 0% means that none of the beetle larvae have been killed. In this test, for example, the following compounds of the Preparation Examples show, at an application rate of 500 g/ha, an activity of 100%: I-a-29, I-a-40.

corn [9] = test: Pre-emergence test, damage to crop plants; conditions: application rate 1280 g/ha, after 3 weeks
Description: as §1

oilseed rape [10] = test: Pre-emergence test, damage to crop plants; conditions: application rate 1280 g/ha, after 3 weeks
Description: as §1

Polygonum convolvulus = test: Pre-emergence herbicidal action against weed plants; conditions: application rate 1280 g/ha, visual assessment after 3 weeks
Description: as §1

[11] = tested on: greenhouse red spider mite (Tetranychus urticae); test: Tetranychus test, OP-resistant (TETRUR spray treatment); conditions: application rate 500 g/ha, bean leaf discs sprayed, after 6 days
Description: (§3) • Solvent: 78.0 parts by weight of acetone • 1.5 parts by weight of dimethylformamide • Emulsifier: 0.5 parts by weight of alkylaryl polyglycol ether
To produce a suitable preparation of active compound, 1 part by weight of active compound is mixed with the stated amounts of solvent and emulsifier, and the concentrate is diluted with emulsifier-containing water to the desired concentration. Discs of bean leaves (Phaseolus vulgaris) infested by all stages of the greenhouse red spider mite (Tetranychus urticae) are sprayed with an active compound formulation of the desired concentration. After 6 days, the activity in % is determined. 100% means that all of the spider mites have been killed; 0% means that none of the spider mites have been killed.

Lolium multiflorum [12] = test: Post-emergence herbicidal action against weed plants; conditions: application rate 320 g/ha, visual assessment after about 3 weeks
Description: as §2

[13] = tested on: caterpillars of the armyworm (Spodoptera frugiperda); test: Spodoptera frugiperda test (SPODFR spray treatment); conditions: application rate 500 g/ha, corn leaf disks sprayed, after 7 days
Description: as §3
To produce a suitable preparation of active compound, 1 part by weight of active compound is mixed with the stated amounts of solvent and emulsifier, and the concentrate is diluted with emulsifier-containing water to the desired concentration. Disks of corn leaves (Zea mays) are sprayed with an active compound preparation of the desired concentration and, after drying, populated with caterpillars of the armyworm (Spodoptera frugiperda). After 7 days, the activity in % is determined. 100% means that all of the caterpillars have been killed; 0% means that none of the caterpillars have been killed. In this test, for example, the following compounds of the Preparation Examples show, at an application rate of 500 g/ha, an activity of 85%: […], I-a-40. In this test, for example, the following compounds of the Preparation Examples show, at an application rate of 500 g/ha, an activity of 100%: I-a-38, I-a-39.

## 6-(4′-chloro-4-methylbiphenyl-3-yl)-5-oxo-4-(prop-2-yn-1-yl)-4,5-dihydro[1,3]thiazolo[4,5]pyridin-7-yl 2-methylpropanoate [I-a-42]
Wheat [1]
  damage in wheat: no damage
Setaria viridis
  herbicidal activity against Setaria viridis: at least 80%
Lolium multiflorum [2]
  herbicidal activity against Lolium multiflorum: at least 80%
Wheat [3]
  damage in wheat: no damage
Rice [4]; application rate 80 g/ha
  damage in rice: no damage
Corn [5]; application rate 80 g/ha
  damage in corn: no damage
Corn [5]; application rate 320 g/ha
  damage in corn: no damage
Oilseed rape [6]
  damage in oilseed rape: no damage

## Cn1c(=O)c(-c2c(F)ccc(-c3ccc(Cl)cc3Cl)c2Cl)c(O)c2scnc21 [I-a-19]
Wheat [1]
  damage in wheat: no damage
Rice [7]
  damage in rice: no damage
Cyperus serotinus
  herbicidal activity against Cyperus serotinus: at least 80%
Alopecurus myosuroides
  herbicidal activity against Alopecurus myosuroides: at least 80%

## C#CCn1c(=O)c(-c2c(Cl)cc(-c3ccc(Cl)cc3)cc2CC)c(O)c2scnc21 [I-a-29]
[8]
  activity in % (beetle larvae killed): 100%

## O=c1c(-c2ccc(-c3ccc(Cl)cc3)cc2Cl)c(OCC(F)F)c2scnc2n1CC(F)F [I-a-32]
Corn [9]
  damage in corn: no damage
Oilseed rape [10]
  damage in oilseed rape: no damage
Polygonum convolvulus
  herbicidal activity against Polygonum convolvulus: at least 80%

## C#CCn1c(=O)c(-c2cc(-c3ccc(Cl)cc3)ccc2Cl)c(O)c2scnc21 [I-a-37]
[11]
  activity in % (spider mites killed): 85% and 90%

## Cc1ccc(-c2ccc(Cl)cc2)cc1-c1c(O)c2scnc2n(C)c1=O [I-a-38]
Corn [9]
  damage in corn: no damage
Oilseed rape [10]
  damage in oilseed rape: no damage
[11]
  activity in % (spider mites killed): 85%
Rice [4]; application rate 320 g/ha
  damage in rice: no damage
Corn [5]; application rate 320 g/ha
  damage in corn: no damage
Lolium multiflorum [12]
  herbicidal activity against Lolium multiflorum: at least 80%
[13]
  activity in % (caterpillars killed): 85% and 100%

## Cc1ccc(-c2ccc(Cl)cc2)cc1-c1c(O)c2scnc2n(CC(F)F)c1=O [I-a-39]
Corn [9]
  damage in corn: no damage
Oilseed rape [10]
  damage in oilseed rape: no damage
[11]
  activity in % (spider mites killed): 85% and 90%
Corn [5]; application rate 320 g/ha
  damage in corn: no damage
Oilseed rape [6]
  damage in oilseed rape: no damage
[13]
  activity in % (caterpillars killed): 85% and 100%

## C#CCn1c(=O)c(-c2cc(-c3ccc(Cl)cc3)ccc2C)c(O)c2scnc21 [I-a-40, 6-(4′-chloro-4-methylbiphenyl-3-yl)-7-hydroxy-4-(prop-2-yn-1-yl)[1,3]thiazolo[4,5-b]pyridin-5(4H)-one]
[8]
  activity in % (beetle larvae killed): 100%
[13]
  activity in % (caterpillars killed): 85%
